{"source": "PubChem BioAssay AID1963972", "about": "(Molecular Pharmacology Branch, DTP, NCI, 2024)", "system": "945468-187-T-J2-PDC spheroids viability", "experiment": "Anticancer human tumor 945468-187-T-J2-PDC patient-derived rectal carcinoma cell line growth inhibition [PI3K]", "settings": "spheroids with HUVEC and MSC; for pIC50: curve of first compound; for viability, T/C: stronger effect = lower value", "method_in_brief": "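High-throughput combination screen: PI3K inhibitors crossed with targeted small molecules on complex spheroids of tumor cells, HUVEC and MSCs at 37 degrees C, 5% CO2. Top concentration was at or near clinical Cmax (otherwise 10 microM), with half-log decrements.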", "note": "pIC50: −log10 of the molar value."}
{"compound": "CNC(=O)c1ccc(N2C(=S)N(c3ccc(C#N)c(C(F)(F)F)c3)C(=O)C2(C)C)cc1F", "note": "+ CC(Nc1ncnc2nc[nH]c12)c1cc2cccc(Cl)c2c(=O)n1-c1ccccc1;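 also: spheroids exposed to compounds for seven days before reading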", "values": [{"measurement": "pIC50", "setting": "second compound 0.0316 µM", "value": "< 5.00"}, {"measurement": "pIC50", "setting": "second compound 0.1 µM", "value": "< 5.00"}, {"measurement": "pIC50", "setting": "second compound 0.316 µM", "value": "< 5.00"}, {"measurement": "pIC50", "setting": "second compound 1 µM", "value": "< 5.00"}, {"measurement": "pIC50", "setting": "second compound 3.16 µM", "value": "< 5.00"}, {"measurement": "pIC50", "setting": "second compound 10 µM", "value": "< 5.00"}, {"measurement": "viability, T/C", "setting": "second compound 0.0316 µM, first compound 0.0316 µM", "value": 111, "unit": "%"}, {"measurement": "viability, T/C", "setting": "second compound 0.0316 µM, first compound 0.1 µM", "value": 93.6, "unit": "%"}, {"measurement": "viability, T/C", "setting": "second compound 0.0316 µM, first compound 0.316 µM", "value": 96.3, "unit": "%"}, {"measurement": "viability, T/C", "setting": "second compound 0.0316 µM, first compound 1 µM", "value": 85.3, "unit": "%"}, {"measurement": "viability, T/C", "setting": "second compound 0.0316 µM, first compound 3.16 µM", "value": 85.1, "unit": "%"}, {"measurement": "viability, T/C", "setting": "second compound 0.0316 µM, first compound 10 µM", "value": 75.7, "unit": "%"}, {"measurement": "viability, T/C", "setting": "second compound 0.1 µM, first compound 0.0316 µM", "value": 92.6, "unit": "%"}, {"measurement": "viability, T/C", "setting": "second compound 0.1 µM, first compound 0.1 µM", "value": 92.5, "unit": "%"}, {"measurement": "viability, T/C", "setting": "second compound 0.1 µM, first compound 0.316 µM", "value": 91.1, "unit": "%"}, {"measurement": "viability, T/C", "setting": "second compound 0.1 µM, first compound 1 µM", "value": 91, "unit": "%"}, {"measurement": "viability, T/C", "setting": "second compound 0.1 µM, first compound 3.16 µM", "value": 106, "unit": "%"}, {"measurement": "viability, T/C", "setting": "second compound 0.1 µM, first compound 10 µM", "value": 88.3, "unit": "%"}, {"measurement": "viability, T/C", "setting": "second compound 0.316 µM, first compound 0.0316 µM", "value": 138, "unit": "%"}, {"measurement": "viability, T/C", "setting": "second compound 0.316 µM, first compound 0.1 µM", "value": 100, "unit": "%"}, {"measurement": "viability, T/C", "setting": "second compound 0.316 µM, first compound 0.316 µM", "value": 95.7, "unit": "%"}, {"measurement": "viability, T/C", "setting": "second compound 0.316 µM, first compound 1 µM", "value": 111, "unit": "%"}, {"measurement": "viability, T/C", "setting": "second compound 0.316 µM, first compound 3.16 µM", "value": 101, "unit": "%"}, {"measurement": "viability, T/C", "setting": "second compound 0.316 µM, first compound 10 µM", "value": 89.5, "unit": "%"}, {"measurement": "viability, T/C", "setting": "second compound 1 µM, first compound 0.0316 µM", "value": 95.5, "unit": "%"}, {"measurement": "viability, T/C", "setting": "second compound 1 µM, first compound 0.1 µM", "value": 87, "unit": "%"}, {"measurement": "viability, T/C", "setting": "second compound 1 µM, first compound 0.316 µM", "value": 100, "unit": "%"}, {"measurement": "viability, T/C", "setting": "second compound 1 µM, first compound 1 µM", "value": 105, "unit": "%"}, {"measurement": "viability, T/C", "setting": "second compound 1 µM, first compound 3.16 µM", "value": 104, "unit": "%"}, {"measurement": "viability, T/C", "setting": "second compound 1 µM, first compound 10 µM", "value": 114, "unit": "%"}, {"measurement": "viability, T/C", "setting": "second compound 3.16 µM, first compound 0.0316 µM", "value": 111, "unit": "%"}, {"measurement": "viability, T/C", "setting": "second compound 3.16 µM, first compound 0.1 µM", "value": 93.9, "unit": "%"}, {"measurement": "viability, T/C", "setting": "second compound 3.16 µM, first compound 0.316 µM", "value": 89.7, "unit": "%"}, {"measurement": "viability, T/C", "setting": "second compound 3.16 µM, first compound 1 µM", "value": 106, "unit": "%"}, {"measurement": "viability, T/C", "setting": "second compound 3.16 µM, first compound 3.16 µM", "value": 105, "unit": "%"}, {"measurement": "viability, T/C", "setting": "second compound 3.16 µM, first compound 10 µM", "value": 93.3, "unit": "%"}, {"measurement": "viability, T/C", "setting": "second compound 10 µM, first compound 0.0316 µM", "value": 89.4, "unit": "%"}, {"measurement": "viability, T/C", "setting": "second compound 10 µM, first compound 0.1 µM", "value": 108, "unit": "%"}, {"measurement": "viability, T/C", "setting": "second compound 10 µM, first compound 0.316 µM", "value": 101, "unit": "%"}, {"measurement": "viability, T/C", "setting": "second compound 10 µM, first compound 1 µM", "value": 102, "unit": "%"}, {"measurement": "viability, T/C", "setting": "second compound 10 µM, first compound 3.16 µM", "value": 113, "unit": "%"}, {"measurement": "viability, T/C", "setting": "second compound 10 µM, first compound 10 µM", "value": 90.5, "unit": "%"}]}
{"compound": "Cn1cnc2c(F)c(Nc3ccc(Br)cc3Cl)c(C(=O)NOCCO)cc21", "note": "+ CC(Nc1ncnc2nc[nH]c12)c1cc2cccc(Cl)c2c(=O)n1-c1ccccc1", "values": [{"measurement": "pIC50", "setting": "second compound 0.0316 µM", "value": "< 5.52"}, {"measurement": "pIC50", "setting": "second compound 0.1 µM", "value": "< 5.52"}, {"measurement": "pIC50", "setting": "second compound 0.316 µM", "value": "< 5.52"}, {"measurement": "pIC50", "setting": "second compound 1 µM", "value": "< 5.52"}, {"measurement": "pIC50", "setting": "second compound 3.16 µM", "value": "< 5.52"}, {"measurement": "pIC50", "setting": "second compound 10 µM", "value": "< 5.52"}, {"measurement": "viability, T/C", "setting": "second compound 0.0316 µM, first compound 0.00949 µM", "value": 100, "unit": "%"}, {"measurement": "viability, T/C", "setting": "second compound 0.0316 µM, first compound 0.03 µM", "value": 103, "unit": "%"}, {"measurement": "viability, T/C", "setting": "second compound 0.0316 µM, first compound 0.0949 µM", "value": 84.1, "unit": "%"}, {"measurement": "viability, T/C", "setting": "second compound 0.0316 µM, first compound 0.3 µM", "value": 92.8, "unit": "%"}, {"measurement": "viability, T/C", "setting": "second compound 0.0316 µM, first compound 0.949 µM", "value": 92, "unit": "%"}, {"measurement": "viability, T/C", "setting": "second compound 0.0316 µM, first compound 3 µM", "value": 73.7, "unit": "%"}, {"measurement": "viability, T/C", "setting": "second compound 0.1 µM, first compound 0.00949 µM", "value": 99.3, "unit": "%"}, {"measurement": "viability, T/C", "setting": "second compound 0.1 µM, first compound 0.03 µM", "value": 82.1, "unit": "%"}, {"measurement": "viability, T/C", "setting": "second compound 0.1 µM, first compound 0.0949 µM", "value": 85.1, "unit": "%"}, {"measurement": "viability, T/C", "setting": "second compound 0.1 µM, first compound 0.3 µM", "value": 93, "unit": "%"}, {"measurement": "viability, T/C", "setting": "second compound 0.1 µM, first compound 0.949 µM", "value": 83.1, "unit": "%"}, {"measurement": "viability, T/C", "setting": "second compound 0.1 µM, first compound 3 µM", "value": 74, "unit": "%"}, {"measurement": "viability, T/C", "setting": "second compound 0.316 µM, first compound 0.00949 µM", "value": 111, "unit": "%"}, {"measurement": "viability, T/C", "setting": "second compound 0.316 µM, first compound 0.03 µM", "value": 90.8, "unit": "%"}, {"measurement": "viability, T/C", "setting": "second compound 0.316 µM, first compound 0.0949 µM", "value": 92.4, "unit": "%"}, {"measurement": "viability, T/C", "setting": "second compound 0.316 µM, first compound 0.3 µM", "value": 91.8, "unit": "%"}, {"measurement": "viability, T/C", "setting": "second compound 0.316 µM, first compound 0.949 µM", "value": 81.5, "unit": "%"}, {"measurement": "viability, T/C", "setting": "second compound 0.316 µM, first compound 3 µM", "value": 80.3, "unit": "%"}, {"measurement": "viability, T/C", "setting": "second compound 1 µM, first compound 0.00949 µM", "value": 122, "unit": "%"}, {"measurement": "viability, T/C", "setting": "second compound 1 µM, first compound 0.03 µM", "value": 106, "unit": "%"}, {"measurement": "viability, T/C", "setting": "second compound 1 µM, first compound 0.0949 µM", "value": 79.7, "unit": "%"}, {"measurement": "viability, T/C", "setting": "second compound 1 µM, first compound 0.3 µM", "value": 88.3, "unit": "%"}, {"measurement": "viability, T/C", "setting": "second compound 1 µM, first compound 0.949 µM", "value": 81.8, "unit": "%"}, {"measurement": "viability, T/C", "setting": "second compound 1 µM, first compound 3 µM", "value": 82.7, "unit": "%"}, {"measurement": "viability, T/C", "setting": "second compound 3.16 µM, first compound 0.00949 µM", "value": 81.6, "unit": "%"}, {"measurement": "viability, T/C", "setting": "second compound 3.16 µM, first compound 0.03 µM", "value": 94.3, "unit": "%"}, {"measurement": "viability, T/C", "setting": "second compound 3.16 µM, first compound 0.0949 µM", "value": 104, "unit": "%"}, {"measurement": "viability, T/C", "setting": "second compound 3.16 µM, first compound 0.3 µM", "value": 107, "unit": "%"}, {"measurement": "viability, T/C", "setting": "second compound 3.16 µM, first compound 0.949 µM", "value": 81.7, "unit": "%"}, {"measurement": "viability, T/C", "setting": "second compound 3.16 µM, first compound 3 µM", "value": 79.9, "unit": "%"}, {"measurement": "viability, T/C", "setting": "second compound 10 µM, first compound 0.00949 µM", "value": 92.7, "unit": "%"}, {"measurement": "viability, T/C", "setting": "second compound 10 µM, first compound 0.03 µM", "value": 94.1, "unit": "%"}, {"measurement": "viability, T/C", "setting": "second compound 10 µM, first compound 0.0949 µM", "value": 97.9, "unit": "%"}, {"measurement": "viability, T/C", "setting": "second compound 10 µM, first compound 0.3 µM", "value": 91.5, "unit": "%"}, {"measurement": "viability, T/C", "setting": "second compound 10 µM, first compound 0.949 µM", "value": 83.8, "unit": "%"}, {"measurement": "viability, T/C", "setting": "second compound 10 µM, first compound 3 µM", "value": 72, "unit": "%"}]}
